{
  "source": "patent US6033823A",
  "about": "“Mutated penicillin G acylase genes” (priority 1994, dated 2000)",
  "key": {"[1]": {"target": "T1, Alcaligenes faecalis Penicillin G acylase mutant B:L56K (Alcaligenes faecalis, UniProt O34142, L321K)", "T1 construct": "alpha 202 aa, beta 551 aa; recombinant, E. coli host", "T1 sequence (O34142 27-228)": "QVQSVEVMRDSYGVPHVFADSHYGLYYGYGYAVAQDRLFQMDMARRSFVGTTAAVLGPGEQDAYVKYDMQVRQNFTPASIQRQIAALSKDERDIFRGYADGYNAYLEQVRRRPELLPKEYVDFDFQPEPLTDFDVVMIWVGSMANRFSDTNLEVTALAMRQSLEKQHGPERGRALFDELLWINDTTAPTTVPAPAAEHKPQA", "T1 sequence (O34142 266-816 L321K)": "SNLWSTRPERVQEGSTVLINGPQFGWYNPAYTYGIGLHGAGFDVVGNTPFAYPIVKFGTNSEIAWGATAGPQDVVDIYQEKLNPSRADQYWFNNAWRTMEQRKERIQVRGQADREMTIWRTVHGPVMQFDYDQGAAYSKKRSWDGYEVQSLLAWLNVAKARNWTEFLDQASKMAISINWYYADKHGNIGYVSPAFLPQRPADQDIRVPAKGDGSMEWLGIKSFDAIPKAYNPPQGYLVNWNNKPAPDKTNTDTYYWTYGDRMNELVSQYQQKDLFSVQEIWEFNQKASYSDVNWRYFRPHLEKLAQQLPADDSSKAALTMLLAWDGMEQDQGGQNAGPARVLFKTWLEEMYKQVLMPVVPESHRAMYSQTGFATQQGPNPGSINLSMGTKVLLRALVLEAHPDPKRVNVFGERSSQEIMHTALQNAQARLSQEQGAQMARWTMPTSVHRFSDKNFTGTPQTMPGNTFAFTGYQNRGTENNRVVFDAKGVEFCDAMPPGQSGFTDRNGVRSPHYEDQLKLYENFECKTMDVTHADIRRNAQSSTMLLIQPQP", "assay": "Deacylation kinetics and phenylacetic acid product inhibition, mutant B:L56K", "format": "biochemical", "conditions": "from progress curves of NIPAB deacylation, 25° C., 0.1 M NaH2PO4.H2O buffer pH 7.5, read-out: Ki Phenylacetic acid (inhibition constant, dissociation constant)", "method": "In order to determine enzymatic activity the acylases were incubated with substrate at room temperature in buffered solution. In case β-lactamase impurity was expected to be present in the enzyme preparations, 1.0 mM -lactamase inhibitor 6-bromo-penicillanic acid was added to the assay. The reactions were stopped by adding an excess PMSF. For some mutants which were less sensitive to PMSF inhibition, the reactions were stopped by adding 0.5 M HCl or 0.5 M acetic acid until the pH was between 3 and 4. When reactions were subsequently analysed by HPLC, the reactions were stopped by dilution with the correponding elution solvent (see table 1). […]\nThe composition of the reaction mixtures was determined by high-performanceliquid chromatography (HPLC)(table 1). Concentrations were determined by using standards of known concentration.\nIn a continuous assay Penicillin G acylase was assayed spectro-fotometrically with the chromogenic substrate NIPAB [6-nitro-3-phenylacetamido-benzoic acid]. The liberation of 3-amino-6-nitrobenzoic acid was monitored by measuring the extinction at 405 nm in a Kontron 610 kinetic spectrofotometer. […]\nInitial rate measurements were performed with excess substrate over the enzyme. Catalytic parameters were derived from least-squares fitting of the measured initial rates plotted for various substrate concentrations according to the Michaelis-Menten equation. […]"}, "[2]": {"target": "T2, Alcaligenes faecalis Penicillin G acylase mutant B:I177V (Alcaligenes faecalis, UniProt O34142, I442V)", "T2 construct": "alpha 202 aa, beta 551 aa; recombinant, E. coli host", "T2 sequence (O34142 27-228)": "T1 sequence (O34142 27-228)", "T2 sequence (O34142 266-816 I442V)": "T1 sequence (O34142 266-816 L321K) with K56L, I177V", "assay": "NIPAB kinetics and phenylacetic acid product inhibition, mutant B:I177V", "format": "biochemical", "conditions": "from progress curves of NIPAB deacylation, 25° C., 0.1 M NaH2PO4.H2O buffer pH 7.5, read-out: Ki Phenylacetic acid (inhibition constant, dissociation constant)", "method": "In a continuous assay Penicillin G acylase was assayed spectro-fotometrically with the chromogenic substrate NIPAB [6-nitro-3-phenylacetamido-benzoic acid]. The liberation of 3-amino-6-nitrobenzoic acid was monitored by measuring the extinction at 405 nm in a Kontron 610 kinetic spectrofotometer. Measuring maximal rate, the assays were performed at 25° C. using 20 mM NaH2 PO4.H2 O at pH 7.5 with 20 mM NIPAB and 100 μl enzym solution (at a proper dilution). Initial rate measurements were performed with varying concentration of NIPAB.\nInitial rate measurements were performed with excess substrate over the enzyme. Catalytic parameters were derived from least-squares fitting of the measured initial rates plotted for various substrate concentrations according to the Michaelis-Menten equation.\nThe complete conversion of NIPAB was followed as a funtion of time at 20, 50 and 100 μM NIPAB by following the increase in absorbtion at 405 nm. Products of this conversion are phenylacetic acid and 3-amino-6-nitrobenzoic acid. The conversion was performed at 25° C. in 0.1 M NaH2 PO4.H2 O buffer pH 7.5. The progress curves of the deacylation of NIPAB could be fitted very well when product inhibition by phenylacetic acid was taken into account. […]"}},
  "note": "Changes are numbered by the printed parent chain.",
  "data": [
    {"smiles": "O=C(O)Cc1ccccc1", "note": "[phenylacetic acid]", "values": [
      {"measurement": "Ki", "setting": "[1]", "result": 115, "unit": "µM"},
      {"measurement": "Ki", "setting": "[2]", "result": 35, "unit": "µM"}
    ]}
  ]
}
